Experimental data reported in publication PMC4354462, “Design, Characterization, and First-In-Human Study of the Vascular Actions of a Novel Biased Apelin Receptor Agonist” (Hypertension, 2015).
Blank lines part the entries; values can stand above or below the compound they belong to. Positions of bridges follow the written chain, without caps; N, C: chain ends. Residues, ends and D or L forms follow the SMILES beside them.

Assays:
male Wistar rats = experiment: Systemic infusions in anaesthetized rat (haemodynamics, echocardiography); type: in vivo
Description: Blood pressure (BP) was monitored continuously via an intra-arterial line and echocardiography was used after each bolus to determine changes in heart […], stroke volume, cardiac output (from peak velocity and velocity time interval) and respiratory rate. Rectal temperature was monitored throughout. BP was analyzed using absolute change in mean BP from the baseline taken just before the bolus and area under the curve analysis.

human hand vein = experiment: Aellig hand vein technique study in human volunteers; type: in vivo
Excerpt: All volunteers (n=12 forearm plethysmography, n=10 hand vein studies) gave written informed consent, and studies adhered to the principles of the Declaration of Helsinki and were approved by the National Research Ethics Service Committee East of England–Cambridge Central (REC 11/EE/0305).

human apelin receptor [1] = biological target: T1, human apelin receptor (Homo sapiens, UniProt P35414); experiment: Competition binding in CHO-K1-APJ cells; settings: competition for [Glp65,Nle75,Tyr77][125I]apelin-13 binding; human apelin receptors in CHO-K1 cells
T1 sequence (P35414 1-380): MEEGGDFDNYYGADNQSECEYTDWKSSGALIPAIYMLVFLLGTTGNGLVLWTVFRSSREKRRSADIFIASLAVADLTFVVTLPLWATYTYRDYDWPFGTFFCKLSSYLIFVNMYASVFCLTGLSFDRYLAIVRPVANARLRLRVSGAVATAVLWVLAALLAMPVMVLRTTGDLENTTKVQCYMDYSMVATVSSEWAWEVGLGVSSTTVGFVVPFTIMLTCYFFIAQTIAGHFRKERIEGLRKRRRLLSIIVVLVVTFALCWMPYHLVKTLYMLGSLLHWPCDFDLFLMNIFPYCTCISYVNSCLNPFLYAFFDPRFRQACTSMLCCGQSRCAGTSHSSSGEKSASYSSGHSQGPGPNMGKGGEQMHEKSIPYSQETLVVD
Description: Initial assays were performed in cells expressing the human apelin receptor (CHO-K1-APJ cells; Cerep, Celle L’Evescault, France). […] Data were analyzed (KELL package; Biosoft, UK) to obtain the dissociation constant KD (concentration of ligand occupying 50% of receptors).

human apelin receptor [2] = biological target: T1, human apelin receptor; experiment: Competition binding in homogenate of human left ventricle; settings: competition for 0.1 nmol/L [Glp65,Nle75,Tyr77][125I]apelin-13; human heart (left ventricle homogenate); n=3
[3] = In vivo plasma half-life of apelin peptides; settings: rat, iv
Excerpt: Rats (230–260 g), anaesthetized with 2% isoflurane, were given a single intravenous bolus (600 nmol) of apelin or MM07 (both n=3).

SMILES: CSCC[C@H](NC(=O)[C@@H]1CCCN1C(=O)CNC(=O)[C@H](CCCCN)NC(=O)[C@H](Cc1cnc[nH]1)NC(=O)[C@H](CO)NC(=O)[C@H](CC(C)C)NC(=O)[C@H](CCCNC(=N)N)NC(=O)[C@@H]1CCCN1C(=O)[C@H](CCCNC(=N)N)NC(=O)[C@@H]1CCC(=O)N1)C(=O)N1CCC[C@H]1C(=O)N[C@@H](Cc1ccccc1)C(=O)O [[Pyr^1]apelin-13, reference compound]
respiratory rate (male Wistar rats; incremental bolus doses 1-300 nmol): Neither peptide caused a significant change
adverse events in hand vein study (human hand vein; human volunteers): no adverse events observed

SMILES: CC(=O)NC(C(=O)O)C(C)(C)SN=O (racemic) [SNAP, S-Nitroso-N-acetyl-D,L-penicillamine]
BP response to SNAP (male Wistar rats; given after peptide doses, both peptide-treated groups): profound fall in BP

Kd (human apelin receptor [1]): 300 nM
Kd (human apelin receptor [2]): 172 nM
half-life [3]: 17.4 ± 0.4 min
SMILES: CSCC[C@H](NC(=O)[C@@H]1CCCN1C(=O)CNC(=O)[C@H](CCCCN)NC(=O)[C@H](Cc1cnc[nH]1)NC(=O)[C@@H]1CSSC[C@H](N)C(=O)N[C@@H](CCCNC(=N)N)C(=O)N2CCC[C@H]2C(=O)N[C@@H](CCCNC(=N)N)C(=O)N[C@@H](CC(C)C)C(=O)N1)C(=O)N1CCC[C@H]1C(=O)N[C@@H](Cc1ccccc1)C(=O)O [MM07] (H-CRPRLCHKGPMPF-OH; disulfide 1-6)
adverse events in hand vein study (human hand vein; human, in vivo): no adverse events observed
